pIC50: −log10 of the molar value. Read-outs that look alike come from different tables or passages of the source.
Biological target: T1, ACAT 2 (Mus musculus, UniProt O88908)
T1 construct: The source of ACAT 2 enzyme used was a membrane fraction derived from mouse liver microsome; from tissue; host or cells: mouse liver (microsome fraction)
T1 sequence (O88908 1-525): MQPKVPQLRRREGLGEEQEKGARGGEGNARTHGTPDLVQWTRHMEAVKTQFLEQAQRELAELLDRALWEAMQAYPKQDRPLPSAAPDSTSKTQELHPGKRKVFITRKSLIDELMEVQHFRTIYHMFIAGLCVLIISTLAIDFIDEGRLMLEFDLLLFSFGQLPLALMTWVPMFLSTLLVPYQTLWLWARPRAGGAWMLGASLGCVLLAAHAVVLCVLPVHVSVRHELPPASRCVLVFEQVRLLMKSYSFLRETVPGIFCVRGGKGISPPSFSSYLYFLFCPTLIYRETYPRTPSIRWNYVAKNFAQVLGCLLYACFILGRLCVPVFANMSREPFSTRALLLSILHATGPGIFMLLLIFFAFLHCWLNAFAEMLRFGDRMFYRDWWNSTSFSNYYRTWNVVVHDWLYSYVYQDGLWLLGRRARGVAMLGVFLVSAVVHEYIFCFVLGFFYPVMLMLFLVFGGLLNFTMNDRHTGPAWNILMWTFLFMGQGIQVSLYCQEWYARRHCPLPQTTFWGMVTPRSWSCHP
Assay: ACAT-inhibiting activity, mouse liver microsome membrane fraction, [14C]oleoyl-CoA
Type: biochemical
Method: The source of ACAT 2 enzyme used was a membrane fraction derived from mouse liver microsome. Mouse liver was homogenized in buffer solution A (50 mM Tris-HCl (pH 7.8), 1 mM ethylenediamine tetraacetate, and 1 mM phenylmethanesulfonyl fluoride) using a homogenizer of the Potter type (Tokyo-RIKO). The homogenate was centrifuged at 12000×g, and the supernatant was ultracentrifuged at 100000×g. The sediment was taken as a microsome fraction, and this fraction was adjusted to have a protein concentration of 5 mg/ml using buffer solution A.
The chloroform layer was evaporated to dryness and was used to spot a thin layer chromatography plate (silica gel plate, Merck, 0.5 mm thickness). Elution for separation was carried out using a solvent of hexane/diethyl ether/acetic acid (70:30:1, v/v).

[1] = mouse liver microsome, 5 minutes at 37° C.

Compound: CC(=O)OCC1(C)C2C[C@H](OC(=O)Cc3nnn[nH]3)[C@@]3(C)Oc4cc(-c5cccnc5)oc(=O)c4[C@H](O)C3[C@@]2(C)CC[C@@H]1OC(C)=O (some centres unmarked) [PRD 102, 7-O-(1H-tetrazol-5-yl)acetyl-7-deacetylpyripyropene A]
- pIC50 [1]: 6.00 to 7.00
- Specific activity: (inhibitory activity of test compound)/(inhibitory activity of pyripyropene A) (relative to pyripyropene A): + (5 > specific activity > 1)

Compound: CC(=O)OCC1(C)C2C[C@H](OC(=O)C3CCCCC3)[C@@]3(C)Oc4cc(-c5cccnc5)oc(=O)c4[C@H](O)C3[C@@]2(C)CC[C@@H]1OC(C)=O (some centres unmarked) [PRD 021, 7-cyclohexanecarboxyl-7-deacetylpyripyropene A]
- pIC50: > 8.00
- Specific activity: (inhibitory activity of test compound)/(inhibitory activity of pyripyropene A) (relative to pyripyropene A): ++++ (100 > specific activity > 50)

Compound: CC(=O)OCC1(C)C2C[C@H](OC(=O)Oc3ccccc3)[C@@]3(C)Oc4cc(-c5cccnc5)oc(=O)c4[C@H](O)C3[C@@]2(C)CC[C@@H]1OC(C)=O (some centres unmarked) [PRD 057, 7-deacetyl-7-O-phenoxycarbonylpyripyropene A]
- pIC50 [1]: 7.00 to 8.00
- Specific activity: (inhibitory activity of test compound)/(inhibitory activity of pyripyropene A) (relative to pyripyropene A): + (5 > specific activity > 1)

Compound: CC(=O)OCC1(C)C2C[C@H](OC(=O)c3cccc(F)c3)[C@@]3(C)Oc4cc(-c5cccnc5)oc(=O)c4[C@H](O)C3[C@@]2(C)CC[C@@H]1OC(C)=O (some centres unmarked) [PRD 024, 7-m-fluorobenzoyl-7-deacetylpyripyropene A]
- pIC50 [1]: > 8.00
- Specific activity relative to pyripyropene A (numeric) (relative to pyripyropene A): ≥ 100
- Specific activity: (inhibitory activity of test compound)/(inhibitory activity of pyripyropene A) (relative to pyripyropene A): +++++ (specific activity > 100)

Compound: CC(=O)OCC1(C)C2C[C@H](OC(=O)c3ccc(N=[N+]=[N-])cc3)[C@@]3(C)Oc4cc(-c5cccnc5)oc(=O)c4[C@H](O)C3[C@@]2(C)CC[C@@H]1OC(C)=O (some centres unmarked) [PRD 030, 7-O-p-azidebenzoyl-7-deacetylpyripyropene A]
- pIC50 [1]: 7.00 to 8.00
- Specific activity: (inhibitory activity of test compound)/(inhibitory activity of pyripyropene A) (relative to pyripyropene A): ++ (10 > specific activity > 5)

Compound: CC(=O)OCC1(C)C2C[C@H](OC(=O)c3ccc(Cl)cc3)[C@@]3(C)Oc4cc(-c5cccnc5)oc(=O)c4[C@H](O)C3[C@@]2(C)CC[C@@H]1OC(C)=O (some centres unmarked) [PRD 012, 7-p-chlorobenzoyl-7-deacetylpyripyropene A]
- pIC50 [1]: > 8.00
- Specific activity: (inhibitory activity of test compound)/(inhibitory activity of pyripyropene A) (relative to pyripyropene A): +++ (50 > specific activity > 10)

Compound: CC(=O)OCC1(C)C2C[C@H](OC(=O)CO)[C@@]3(C)Oc4cc(-c5cccnc5)oc(=O)c4[C@H](O)C3[C@@]2(C)CC[C@@H]1OC(C)=O (some centres unmarked) [PRD 107, 7-O-hydroxyacetyl-7-deacetylpyripyropene A]
- pIC50 [1]: 6.00 to 7.00
- Specific activity: (inhibitory activity of test compound)/(inhibitory activity of pyripyropene A) (relative to pyripyropene A): + (5 > specific activity > 1)

Compound: CC(=O)OCC1(C)C2C[C@H](OC(=O)c3ccccc3C#N)[C@@]3(C)Oc4cc(-c5cccnc5)oc(=O)c4[C@H](O)C3[C@@]2(C)CC[C@@H]1OC(C)=O (some centres unmarked) [PRD 015, 7-o-cyanobenzoyl-7-deacetylpyripyropene A]
- pIC50 [1]: 6.00 to 7.00
- Specific activity: (inhibitory activity of test compound)/(inhibitory activity of pyripyropene A) (relative to pyripyropene A): + (5 > specific activity > 1)

Compound: 7-O-o,m,p-trifluorobenzoyl-7-deacetylpyripyropene A [PRD 110]
- pIC50 (read-out: Inhibitory activity: Concentration required for 50% inhibition of ACAT 2, mouse liver microsome, 5 minutes at 37° C.): > 8.00
- Specific activity: (inhibitory activity of test compound)/(inhibitory activity of pyripyropene A) (relative to pyripyropene A): +++ (50 > specific activity > 10)

Compound: COCCOCOCC(=O)O[C@H]1CC2C(C)(COC(C)=O)[C@@H](OC(C)=O)CC[C@]2(C)C2[C@@H](O)c3c(cc(-c4cccnc4)oc3=O)O[C@@]21C (some centres unmarked) [PRD 108, 7-O-methoxyethoxymethoxyacetyl-7-deacetylpyripyropene A]
- pIC50 [1]: 6.00 to 7.00
- Specific activity: (inhibitory activity of test compound)/(inhibitory activity of pyripyropene A) (relative to pyripyropene A): + (5 > specific activity > 1)

Compound: COc1ccc(CCCC(=O)O[C@H]2CC3C(C)(COC(C)=O)[C@@H](OC(C)=O)CC[C@]3(C)C3[C@@H](O)c4c(cc(-c5cccnc5)oc4=O)O[C@@]32C)cc1 (some centres unmarked) [PRD 103, 7-O-4-(4-methoxyphenyl)butytyl-7-deacetylpyripyropene A]
- pIC50 [1]: > 8.00
- Specific activity: (inhibitory activity of test compound)/(inhibitory activity of pyripyropene A) (relative to pyripyropene A): +++ (50 > specific activity > 10)

Compound: CC(=O)OCC1(C)C2C[C@H](OC(=O)c3ccc(I)cc3)[C@@]3(C)Oc4cc(-c5cccnc5)oc(=O)c4[C@H](O)C3[C@@]2(C)CC[C@@H]1OC(C)=O (some centres unmarked) [PRD 006, 7-p-iodobenzoyl-7-deacetylpyripyropene A]
- pIC50 [1]: 7.00 to 8.00
- Specific activity: (inhibitory activity of test compound)/(inhibitory activity of pyripyropene A) (relative to pyripyropene A): ++ (10 > specific activity > 5)

Compound: CC(=O)OCC1(C)C2C[C@H](OC(=O)Oc3ccc(Cl)cc3)[C@@]3(C)Oc4cc(-c5cccnc5)oc(=O)c4[C@H](O)C3[C@@]2(C)CC[C@@H]1OC(C)=O (some centres unmarked) [PRD 058, 7-O-p-chlorophenoxycarbonyl-7-deacetylpyripyropene A]
- pIC50 [1]: 7.00 to 8.00
- Specific activity: (inhibitory activity of test compound)/(inhibitory activity of pyripyropene A) (relative to pyripyropene A): +++ (50 > specific activity > 10)

Compound: COc1ccc(-n2nnnc2S[C@@H]2CC3C(C)(COC(C)=O)[C@@H](OC(C)=O)CC[C@]3(C)C3[C@@H](O)c4c(cc(-c5cccnc5)oc4=O)O[C@@]32C)cc1 (stereo partly drawn) [PRD 066, 7-(R)-{sulfinyl-5-(p-methoxyphenyl)tetrazol-1-yl}-7-(S)-deacetylpyripyropene A]
- pIC50 [1]: 6.00 to 7.00
- Specific activity: (inhibitory activity of test compound)/(inhibitory activity of pyripyropene A) (relative to pyripyropene A): + (5 > specific activity > 1)

Compound: CC12COC(c3ccccc3)O[C@H]1CC[C@@]1(C)C2C[C@H](OC(=O)c2ccccc2C#N)[C@@]2(C)Oc3cc(-c4cccnc4)oc(=O)c3[C@H](O)C12 (some centres unmarked) [PRD 039, 1,11-O-benzylidene-7-O-o-cyanobenzoyl-1,7,11-trideacetylpyripyropene A]
- Specific activity: (inhibitory activity of test compound)/(inhibitory activity of pyripyropene A) (relative to pyripyropene A): +++ (50 > specific activity > 10)

Compound: CC(=O)OCC1(C)C2C[C@H](OC(=O)Cn3cc(C)c(=O)[nH]c3=O)[C@@]3(C)Oc4cc(-c5cccnc5)oc(=O)c4[C@H](O)C3[C@@]2(C)CC[C@@H]1OC(C)=O (some centres unmarked) [PRD 090, 7-O-1-thymineacetyl-7-deacetylpyripyropene A]
- pIC50 [1]: 6.00 to 7.00
- Specific activity: (inhibitory activity of test compound)/(inhibitory activity of pyripyropene A) (relative to pyripyropene A): + (5 > specific activity > 1)

Compound: CC12COC(c3ccccc3)O[C@H]1CC[C@@]1(C)C2C[C@H](OC(=O)c2cccc(Cl)c2)[C@@]2(C)Oc3cc(-c4cccnc4)oc(=O)c3[C@H](O)C12 (some centres unmarked) [PRD 050, 1,11-O-benzylidene-7-O-m-chlorobenzoyl-1,7,11-trideacetylpyripyropene A]
- pIC50 [1]: 7.00 to 8.00
- Specific activity: (inhibitory activity of test compound)/(inhibitory activity of pyripyropene A) (relative to pyripyropene A): +++ (50 > specific activity > 10)

Compound: CC(=O)OCC1(C)C2C[C@H](OC(=O)c3cc4ccccc4s3)[C@@]3(C)Oc4cc(-c5cccnc5)oc(=O)c4[C@H](O)C3[C@@]2(C)CC[C@@H]1OC(C)=O (some centres unmarked) [PRD 035, 7-benzo[b]thiophene-2-carboxyl-7-deacetylpyripyropene A]
- pIC50 [1]: 6.00 to 7.00
- Specific activity: (inhibitory activity of test compound)/(inhibitory activity of pyripyropene A) (relative to pyripyropene A): + (5 > specific activity > 1)

Compound: CC(=O)OCC1(C)C2C[C@H](OC(=O)c3ccc([N+](=O)[O-])cc3)[C@@]3(C)Oc4cc(-c5cccnc5)oc(=O)c4[C@H](O)C3[C@@]2(C)CC[C@@H]1OC(C)=O (some centres unmarked) [PRD 029, 7-p-nitrobenzoyl-7-deacetylpyripyropene A]
- pIC50 [1]: 7.00 to 8.00
- Specific activity: (inhibitory activity of test compound)/(inhibitory activity of pyripyropene A) (relative to pyripyropene A): + (5 > specific activity > 1)

Compound: CC(=O)OCC1(C)C2C[C@H](OC(=O)c3ccc(=O)oc3)[C@@]3(C)Oc4cc(-c5cccnc5)oc(=O)c4[C@H](O)C3[C@@]2(C)CC[C@@H]1OC(C)=O (some centres unmarked) [PRD 098, 7-O-2-pyrone-5-carboxyl-7-deacetylpyripyropene A]
- pIC50 [1]: 6.00 to 7.00
- Specific activity: (inhibitory activity of test compound)/(inhibitory activity of pyripyropene A) (relative to pyripyropene A): + (5 > specific activity > 1)

Compound: CC(=O)OCC1(C)C2C[C@H](OC(=O)c3cnccn3)[C@@]3(C)Oc4cc(-c5cccnc5)oc(=O)c4[C@H](O)C3[C@@]2(C)CC[C@@H]1OC(C)=O (some centres unmarked) [PRD 096, 7-O-pyrazinecarboxyl-7-deacetylpyripyropene A]
- pIC50 [1]: 6.00 to 7.00
- Specific activity: (inhibitory activity of test compound)/(inhibitory activity of pyripyropene A) (relative to pyripyropene A): + (5 > specific activity > 1)

Compound: CC(=O)OCC1(C)C2C[C@H](OC(=O)CCN3CCCCC3)[C@@]3(C)Oc4cc(-c5cccnc5)oc(=O)c4[C@H](O)C3[C@@]2(C)CC[C@@H]1OC(C)=O (some centres unmarked) [PRD 095, 7-O-3-(pyperidin-1-yl)propionyl-7-deacetylpyripyropene A]
- pIC50 [1]: 6.00 to 7.00
- Specific activity: (inhibitory activity of test compound)/(inhibitory activity of pyripyropene A) (relative to pyripyropene A): + (5 > specific activity > 1)

Source: patent publication US8519128B2, “Pyripyropene derivatives having an ACAT2-inhibiting activity” (The Kitasato Institute, priority 2007, dated 2013)
